Assay results reported in patent US11773094B2, “Farnesoid X receptor agonists and uses thereof” (Metacrine, Inc., priority 2018, dated 2023).
pEC50: −log10 of the molar value.

What follows are compounds tested against T1, hFXR (Homo sapiens, UniProt Q96RI1) (assay: In Vitro FXR Assay (TK): TK-ECRE-luc reporter in transfected CV-1 cells). Settings: CV-1 cells transfected with hFXR, hRXR, pCMX-YFP, 18 hrs incubation, luminescence.
T1 construct: expressed in transfected cells; host or cells: CV-1 cells
T1 sequence (Q96RI1 1-486): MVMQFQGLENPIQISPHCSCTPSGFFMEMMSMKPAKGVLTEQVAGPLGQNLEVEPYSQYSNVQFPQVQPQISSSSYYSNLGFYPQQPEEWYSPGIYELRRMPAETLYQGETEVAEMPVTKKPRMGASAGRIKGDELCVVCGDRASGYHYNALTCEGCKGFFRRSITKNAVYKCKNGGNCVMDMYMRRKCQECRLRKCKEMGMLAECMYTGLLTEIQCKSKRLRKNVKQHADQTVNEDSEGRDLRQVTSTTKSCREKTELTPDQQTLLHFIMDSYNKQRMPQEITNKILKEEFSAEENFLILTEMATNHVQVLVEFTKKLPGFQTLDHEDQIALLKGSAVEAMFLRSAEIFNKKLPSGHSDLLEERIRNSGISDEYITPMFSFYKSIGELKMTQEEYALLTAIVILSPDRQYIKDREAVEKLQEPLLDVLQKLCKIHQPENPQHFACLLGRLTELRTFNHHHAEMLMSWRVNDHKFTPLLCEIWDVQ
T1 sequence (P19793 1-462 partner): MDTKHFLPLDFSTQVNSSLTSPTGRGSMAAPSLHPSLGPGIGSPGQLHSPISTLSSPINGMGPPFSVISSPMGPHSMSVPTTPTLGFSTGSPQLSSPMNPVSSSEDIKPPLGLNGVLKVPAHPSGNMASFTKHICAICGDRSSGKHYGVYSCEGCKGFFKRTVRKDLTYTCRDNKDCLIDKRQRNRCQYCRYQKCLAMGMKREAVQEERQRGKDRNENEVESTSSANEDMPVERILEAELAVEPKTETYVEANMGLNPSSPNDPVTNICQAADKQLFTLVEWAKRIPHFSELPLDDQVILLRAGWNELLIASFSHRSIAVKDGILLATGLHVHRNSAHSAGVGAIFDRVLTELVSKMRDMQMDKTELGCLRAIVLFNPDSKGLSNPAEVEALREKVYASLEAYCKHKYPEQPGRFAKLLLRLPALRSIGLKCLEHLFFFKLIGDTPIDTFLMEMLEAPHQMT
Format: cell-based
Procedure, shortened: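 First, CV-1 cells were grown overnight in stripped-serum DMEM, then transfected for 18 h with expression plasmids for human FXR and RXR plus a TK-ECRE luciferase reporter and YFP. Next, serially diluted compounds were applied for 18 h, and lysates were read by luminescence.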

pEC50, ≥ 8.00:
COc1ccc(C23CCC(CN(c4cc(-c5cnn(C(C)(C)C)c5)ccn4)C(=O)[C@H]4CC[C@H](OC(=O)N5CC(C)(O)C5)CC4)(CC2)CC3)cc1C [Compound 2.22, 4-((4-(1-(tert-Butyl)-1H-pyrazol-4-yl)pyridin-2-yl)((4-(4-methoxy-3-methylphenyl)bicyclo[2.2.2]octan-1-yl)methyl)carbamoyl) (trans-cyclohexyl) 3-hydroxy-3-methylazetidine-1-carboxylate]
COc1ccc(C23CCC(CN(c4cc(-c5coc(C(C)(C)C)n5)ccn4)C(=O)[C@H]4CC[C@H](OC(=O)NCCC(C)(C)O)CC4)(CC2)CC3)cc1C [Compound 2.20, 4-((4-(2-(tert-Butyl)oxazol-4-yl)pyridin-2-yl)((4-(4-methoxy-3-methylphenyl)bicyclo[2.2.2]octan-1-yl)methyl)carbamoyl) (trans-cyclohexyl) (3-hydroxy-3-methylbutyl)carbamate]
COc1ccc(C23CCC(CN(c4cc(-c5cnn(C(C)(C)C)c5)ccn4)C(=O)[C@H]4CC[C@H](OC(=O)NCCO)CC4)(CC2)CC3)cc1C [Compound 2.30, 4-((4-(1-(tert-Butyl)-1H-pyrazol-4-yl)pyridin-2-yl)((4-(4-methoxy-3-methylphenyl)bicyclo[2.2.2]octan-1-yl)methyl)carbamoyl)cyclohexyl (2-hydroxyethyl)trans-carbamate]
COc1ccc(C23CCC(CN(c4cc(-c5cnn(C(C)(C)C)c5)ccn4)C(=O)[C@H]4CC[C@H](OC(=O)N5CCC(O)CC5)CC4)(CC2)CC3)cc1C [Compound 2.27, 4-((4-(1-(tert-Butyl)-1H-pyrazol-4-yl)pyridin-2-yl)((4-(4-methoxy-3-methylphenyl)bicyclo[2.2.2]octan-1-yl)methyl)carbamoyl)cyclohexyl 4-hydroxypiperidine-trans-1-carboxylate]
COc1ccc(C23CCC(CN(c4cc(-c5coc(C(C)(C)C)n5)ccn4)C(=O)[C@H]4CC[C@H](OC(=O)N5CC(CO)C5)CC4)(CC2)CC3)cc1C [Compound 2.15, 4-((4-(2-(tert-Butyl)oxazol-4-yl)pyridin-2-yl)((4-(4-methoxy-3-methylphenyl)bicyclo[2.2.2]octan-1-yl)methyl)carbamoyl) (trans-cyclohexyl) 3-(hydroxymethyl)azetidine-1-carboxylate]
COc1ccc(C23CCC(CN(c4cc(-c5cnn(C(C)(C)C)c5)ccn4)C(=O)[C@H]4CC[C@H](OC(=O)NCCC(C)(C)O)CC4)(CC2)CC3)cc1C [Compound 2.32, 4-((4-(1-(tert-Butyl)-1H-pyrazol-4-yl)pyridin-2-yl)((4-(4-methoxy-3-methylphenyl)bicyclo[2.2.2]octan-1-yl)methyl)carbamoyl) (trans-cyclohexyl) (3-hvdroxy-3-methylbutyl)carbamate]
COc1ccc(C23CCC(CN(c4cc(-c5cnn(C(C)(C)C)c5)ccn4)C(=O)[C@H]4CC[C@H](OC(=O)NC5COC5)CC4)(CC2)CC3)cc1C [Compound 2.28, 4-((4-(1-(tert-Butyl)-1H-pyrazol-4-yl)pyridin-2-yl)((4-(4-methoxy-3-methylphenyl)bicyclo[2.2.2]octan-1-yl)methyl)carbamoyl) (trans-cyclohexyl) oxetan-3-ylcarbamate]

pEC50, 6.00 to 8.00:
CN(C)c1ccc(C23CCC(CN(c4cc(-c5cnn(C(C)(C)C)c5)ccn4)C(=O)[C@H]4CC[C@H](OC(=O)N5CC(O)C5)CC4)(CC2)CC3)cn1 [Compound 3.06, 4-((4-(1-(tert-Butyl)-1H-pyrazol-4-yl)pyridin-2-yl)((4-(6-(dimethylamino)pyridin-3-yl)bicyclo[2.2.2]octan-1-yl)methyl)carbamoyl) (trans-cyclohexyl) 3-hydroxyazetidine-1-carboxylate]
COc1ccc(C23CCC(CN(c4cccc(-c5cnn(C(C)(C)C)c5)n4)C(=O)[C@H]4CC[C@H](OC(=O)N5CC(O)C5)CC4)(CC2)CC3)cc1C [Compound 1.15, 4-((6-(1-(tert-Butyl)-1H-pyrazol-4-yl)pyridin-2-yl)((4-(4-methoxy-3-methylphenyl)bicyclo[2.2.2]octan-1-yl)methyl)carbamoyl) (trans-cyclohexyl) 3-hydroxyazetidine-1-carboxylate]
COc1ccc(C23CCC(CN(c4nccc(-c5cnn(C(C)(C)C)c5)n4)C(=O)[C@H]4CC[C@H](OC(=O)N5CC(O)C5)CC4)(CC2)CC3)cc1C [Compound 3.14, 4-((4-(1-(tert-Butyl)-1H-pyrazol-4-yl)pyrimidin-2-yl)((4-(4-methoxy-3-methylphenyl)bicyclo[2.2.2]octan-1-yl)methyl)carbamoyl) (trans-cyclohexyl) 3-hydroxyazetidine-1-carboxylate]
COc1ccc(C23CCC(CN(c4cc(-c5ccn(C(C)(C)C)n5)ccn4)C(=O)[C@H]4CC[C@H](OC(=O)N5CC(O)C5)CC4)(CC2)CC3)cc1C [Compound 4.10, 4-((4-(1-(tert-Butyl)-1H-pyrazol-3-yl)pyridin-2-yl)((4-(4-methoxy-3-methylphenyl)bicyclo[2.2.2]octan-1-yl)methyl)carbamoyl) cyclohexyl trans-3-hydroxyazetidine-1-carboxylate]
COc1ccc(C23CCC(CN(c4cc(-c5coc(C(C)(C)C)n5)ccn4)C(=O)[C@H]4CC[C@H](OC(=O)N5CCC(N(C)C)C5)CC4)(CC2)CC3)cc1C (stereo partly drawn) [Compound 2.16, 4-((4-(2-(tert-Butyl)oxazol-4-yl)pyridin-2-yl)((4-(4-methoxy-3-methylphenyl)bicyclo[2.2.2]octan-1-yl)methyl)carbamoyl)cyclohexyl 3-(dimethylamino)pyrrolidine- trans-1-carboxylate]
COc1ccc(C23CCC(CN(c4cc(-n5cnc(C(C)(C)C)c5)ccn4)C(=O)[C@H]4CC[C@H](OC(=O)N5CC(O)C5)CC4)(CC2)CC3)cc1C [Compound 4.11, 4-((4-(4-(tert-Butyl)-1H-imidazol-1-yl)pyridin-2-yl)((4-(4-methoxy-3-methylphenyl)bicyclo[2.2.2]octan-1-yl)methyl)carbamoyl) cyclohexyl trans-3-hydroxyazetidine-1-carboxylate]
COc1c(C)cc(C23CCC(CN(c4cc(-c5cnn(C(C)(C)C)c5)ncn4)C(=O)[C@H]4CC[C@H](OC(=O)N5CC(O)C5)CC4)(CC2)CC3)cc1C [Compound 2.37, 4-((6-(1-(tert-Butyl)-1H-pyrazol-4-yl)pyrimidin-4-yl)((4-(4-methoxy-3,5-dimethylphenyl)bicyclo[2.2.2]octan-1-yl)methyl)carbamoyl) (trans-cyclohexyl) 3-hydroxyazetidine-1-carboxylate]
COc1ccc(C23CCC(CN(c4cc(-c5cnn(C(C)(C)C)c5)ccn4)C(=O)[C@H]4CC[C@H](OC(=O)NC5CC[S+]([O-])CC5)CC4)(CC2)CC3)cc1C (stereo partly shown) [Compound 2.38, (1r,4r)-4-((4-(1-(tert-Butyl)-1H-pyrazol-4-yl)pyridin-2-yl)((4-(4-methoxy-3-methylphenyl)bicyclo[2.2.2]octan-1-yl)methyl)carbamoyl)cyclohexyl (1-oxidotetrahydro-2H-thiopyran-4-yl)carbamate]
COc1ccc([C@H]2CC[C@H](CN(c3cc(-c4cnc(C(C)(C)C)s4)ccn3)C(=O)[C@H]3CC[C@H](OC(=O)NC4CCOCC4)CC3)CC2)cc1C [Compound 1]
